molecular target: T1, recombinant human ASK1 (Homo sapiens, UniProt Q99683); test: ASK1 enzymatic inhibition in vitro by HTRF; assay type: biochemical; conditions: HTRF method, single concentration 100 nM
T1 construct: purchased Invitrogen PR7349B
T1 sequence (Q99683 1-1374): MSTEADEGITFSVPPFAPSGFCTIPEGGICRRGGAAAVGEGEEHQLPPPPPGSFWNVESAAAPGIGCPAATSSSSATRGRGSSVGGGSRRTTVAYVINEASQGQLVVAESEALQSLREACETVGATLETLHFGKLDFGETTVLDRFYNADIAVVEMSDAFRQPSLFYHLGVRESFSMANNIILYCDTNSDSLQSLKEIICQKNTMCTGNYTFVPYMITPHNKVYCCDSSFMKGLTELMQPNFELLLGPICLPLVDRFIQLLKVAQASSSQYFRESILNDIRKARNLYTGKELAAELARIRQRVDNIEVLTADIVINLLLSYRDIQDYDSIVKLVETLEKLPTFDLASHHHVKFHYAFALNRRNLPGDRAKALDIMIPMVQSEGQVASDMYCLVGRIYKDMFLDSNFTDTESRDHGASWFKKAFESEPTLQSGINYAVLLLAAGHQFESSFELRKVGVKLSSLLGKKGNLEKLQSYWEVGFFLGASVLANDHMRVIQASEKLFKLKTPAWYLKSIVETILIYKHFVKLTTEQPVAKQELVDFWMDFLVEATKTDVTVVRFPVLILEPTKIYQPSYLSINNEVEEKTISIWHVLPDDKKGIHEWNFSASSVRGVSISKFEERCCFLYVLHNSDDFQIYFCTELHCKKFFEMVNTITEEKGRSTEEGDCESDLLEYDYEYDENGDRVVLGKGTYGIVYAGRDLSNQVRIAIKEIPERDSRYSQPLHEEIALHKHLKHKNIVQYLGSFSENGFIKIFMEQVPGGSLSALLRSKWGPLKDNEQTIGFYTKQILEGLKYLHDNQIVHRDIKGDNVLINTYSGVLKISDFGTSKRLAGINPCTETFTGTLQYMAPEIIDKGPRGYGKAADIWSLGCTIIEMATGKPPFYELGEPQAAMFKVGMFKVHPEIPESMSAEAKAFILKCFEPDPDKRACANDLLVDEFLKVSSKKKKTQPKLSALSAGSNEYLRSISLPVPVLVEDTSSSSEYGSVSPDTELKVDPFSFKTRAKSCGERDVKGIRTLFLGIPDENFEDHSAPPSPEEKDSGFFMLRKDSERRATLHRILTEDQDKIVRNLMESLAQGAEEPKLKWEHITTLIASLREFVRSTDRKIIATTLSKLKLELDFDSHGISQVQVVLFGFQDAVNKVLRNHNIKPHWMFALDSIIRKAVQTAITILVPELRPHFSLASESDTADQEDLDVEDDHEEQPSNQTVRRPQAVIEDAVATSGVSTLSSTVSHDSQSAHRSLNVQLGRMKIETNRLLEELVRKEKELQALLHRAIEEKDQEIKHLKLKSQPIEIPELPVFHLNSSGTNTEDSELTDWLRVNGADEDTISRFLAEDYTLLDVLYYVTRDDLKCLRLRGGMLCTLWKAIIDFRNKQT
Description: In this detection, homogeneous time resolved fluorescence (HTRF) was used to evaluate the inhibitory level of the compound on the enzyme activity of recombinant human ASK1 in an in vitro reaction system.
The basic principle of the detection of enzymatic activity in vitro: a specific substrate labeled with biotin at the end is phosphorylated under the action of a kinase, and the reaction product is mixed with the EU3+-Cryptate-labeled antibody that recognizes the phosphorylation site and XL665-labeled streptavidin. When the two fluorescent molecules are bound to the substrate at the same time, Eu will produce […] fluorescence under the stimulation of external excitation light (320 nm), and meanwhile, XL665 will be excited by energy transfer to produce 665 nm fluorescence. The phosphorylation of the substrate is evaluated by comparing the changes of fluorescence at two wavelengths (620 nm and 665 nm). […] The basic detection principle is known in the prior art (Cisbio, Nature Method 2006, June 23; DOI:10.1038/NMETH883).
Human recombinant ASK1 (MAP3K5) kinase, 2× kinase reaction buffer, and ATP (10 mM) were purchased from Invitrogen (Cat. No.: PR7349B), and HTRF detection kit, HTRF KinEASE STK discovery kit, was purchased from Cisbio (Cat. No.: 62ST0PEB).
The experimental process was carried out in accordance with the procedures required by the detection reagent manual (https://www.cisbio.com/sites/default/files/ressources/cisbio_ddpi_62ST0PEB.pdf). The details are as follows:
(1) Experimental preparation: the kinase reaction buffer (working solution) is prepared as required and used to dilute the test compound into different concentration gradients (the maximum concentration of the compound is 4 μM).
(2) 10 μL of the enzymatic reaction system (including 2.5 μL of test compound, 5 μL of kinase reaction buffer and 2.5 μL of ATP solution (provided in the kit)) is mixed well and reacted at room temperature for 1 h. The enzymatic reaction is carried out in a 96-well microplate.
(3) EU3+-Cryptate-labeled antibody and XL665-labeled streptavidin are diluted with reaction termination buffer in an appropriate ratio, and 5 μL of each of two diluted detection solutions is added to each reaction well and reacted at room temperature for 2 h.
(4) The reaction is set up with a control reaction at the same time, including a positive control without test compound and a negative control without ASK1 kinase. All detections are carried out in duplicate.
(5) After the reaction, a fluorescence detector (TecanSPARK 10M) is used to detect the fluorescence signal of each well, wherein, the excitation wavelength is 320 nm, and the detected emission wavelengths are 620 nm and 665 nm, respectively.
(6) The 665/620 ratio of each well is calculated respectively, and the 665/620 ratio of the negative control well is subtracted from that of the positive control well to get the basic level of phosphorylation of the substrate. The formula for calculating the enzymatic inhibition rate of the test compound: inhibition rate (%)=1-(ratio of detection wells-ratio of negative wells)/basic level of phosphorylation of the substrate. The phosphorylation inhibition rates are calculated for the test compounds with different concentration gradients, and then the 50% enzymatic inhibiting concentration (IC50) is calculated by using the IC50 calculator. The summary data of the representative compounds of the present invention are as follows (see Table 2).

| SMILES | Inhibition Rate % [%] |
| --- | --- |
| Cc1cc(F)c(C(=O)Nc2cccc(-c3nncn3C(C)C)n2)cc1NC(=O)[C@H]1C[C@@H]1F [Compound I-18, 2-fluoro-5-((1R,2S)-2-fluorocyclopropyl-1-formamido)-N-(6-(4-isopropyl-4H-1,2,4-triazol-3-yl)pyridin-2-yl)-4-methylbenzamide] | 34 |
| Cc1cc(F)c(C(=O)Nc2cccc(-c3nncn3C(C)C)n2)cc1NC(=O)C1(F)CC1 [Compound I-16, 2-fluoro-N-(6-(4-isopropyl-4H-1,2,4-triazol-3-yl)pyridin-2-yl)-4-methyl-5-(1-(fluoro)cyclopropyl-1-formamido)benzamide] | 21 |
| Cc1cc(F)c(C(=O)Nc2cccc(-c3nncn3C(C)C)n2)cc1NC(=O)C1CC1c1ccc(F)cc1 (stereo not drawn) [Compound I-13, 2-fluoro-5-(2-(4-fluorophenyl)cyclopropyl-1-formamido)-N-(6-(4-isopropyl-4H-1,2,4-triazol-3-yl)pyridin-2-yl)-4-methylbenzamide] | 18 |
| Cc1cc(F)c(C(=O)Nc2cccc(-c3nncn3[C@@H](C)C(F)(F)F)n2)cc1NC(=O)C1CCCCCC1 [Compound I-20, (S)-5-(cycloheptylformamido)-2-fluoro-4-methyl-N-(6-(4-(1,1,1-trifluoropropyl-2-yl)-4H-1,2,4-triazol-3-yl)pyridin-2-yl)benzamide] | 16 |
| Cc1cc(F)c(C(=O)Nc2csc(-c3nncn3[C@@H](C)C(F)(F)F)n2)cc1NC(=O)C1CC1 [Compound I-8] | 24 |
| COC[C@@H](C)n1cnnc1-c1cccc(NC(=O)c2cc(NC(=O)C3CC3)c(C)cc2F)n1 [Compound I-6] | 13 |
| C[C@H](n1cnnc1-c1cccc(NC(=O)c2cc(NC(=O)C3CC3)ccn2)n1)C(F)(F)F [Compound I-10, (S)-4-(cyclopropylformamido)-N-(6-(4-(1,1,1-trifluoropropyl-2-yl)-4H-1,2,4-triazol-3-yl)pyridin-2-yl)pyridin-2-formamide] | 44 |
| C[C@H](n1cnnc1-c1cccc(NC(=O)c2cc(NC(=O)C3CC3)c(Cl)cc2F)n1)C(F)(F)F [Compound I-9, (S)-4-chloro-5-(cyclopropylformamido)-2-fluoro-N-(6-(4-(1,1,1-trifluoropropyl-2-yl)-4H-1,2,4-triazol-3-yl)pyridin-2-yl)benzamide] | 33 |
| Cc1cc(F)c(C(=O)Nc2cccc(-c3nncn3[C@@H](C)C(F)(F)F)n2)cc1NC(=O)C1CCCC1 [Compound I-19, (S)-5-(cyclopentylformamido)-2-fluoro-4-methyl-N-(6-(4-(1,1,1-trifluoropropyl-2-yl)-4H-1,2,4-triazol-3-yl)pyridin-2-yl)benzamide] | 52 |
| Cc1cc(F)c(C(=O)Nc2cccc(-c3nncn3[C@@H](C)C(F)(F)F)n2)cc1NC(=O)C1CC1 [Compound I-3, (5)-5-(cyclopropylformamido)-2-fluoro-4-methyl-N-(6-(4-(1,1,1-trifluoropropyl-2-yl)-4H-1,2,4-triazol-3-yl)pyridin-2-yl)benzamide] | 51 |
| Cc1cc(F)c(C(=O)Nc2cccc(-c3nncn3C(C)C)n2)cc1NC(=O)[C@H]1C[C@H]1F [Compound I-17, 2-fluoro-5-((1R,2R)-2-fluorocyclopropyl-1-formamido)-N-(6-(4-isopropyl-4H-1,2,4-triazol-3-yl)pyridin-2-yl)-4-methylbenzamide] | 15 |
| C[C@H](n1cnnc1-c1cccc(NC(=O)c2cc(NC(=O)C3CC3)c(F)cn2)n1)C(F)(F)F [Compound I-11, (S)-4-(cyclopropylformamido)-5-fluoro-N-(6-(4-(1,1,1-trifluoropropyl-2-yl)-4H-1,2,4-triazol-3-yl)pyridin-2-yl)pyridin-2-formamide] | 27 |

same assay, conditions: HTRF method, single concentration 100 nM; read-out: Inhibition Rate %

| SMILES | inhibition at 0.1 µM [%] |
| --- | --- |
| Cc1cc(F)c(C(=O)Nc2cccc(-c3nncn3CC(F)(F)F)n2)cc1NC(=O)C1CC1 [Compound I-4, 5-(cyclopropylformamido)-2-fluoro-4-methyl-N-(6-(4-(2,2,2-trifluoroethyl)-4H-1,2,4-triazol-3-yl)pyridin-2-yl)benzamide] | 32 |
| Cc1cc(F)c(C(=O)Nc2cccc(-c3nncn3C(C)C)n2)cc1NC(=O)C1CCC1 [Compound I-14, 5-(cyclobutylformamido)-2-fluoro-N-(6-(4-isopropyl-4H-1,2,4-triazol-3-yl)pyridin-2-yl)-4-methylbenzamide] | 42 |
| Cc1cc(F)c(C(=O)Nc2cccc(-c3nncn3C(C)C)n2)cc1NC(=O)C1CC1 [Compound I-1, 5-(cyclopropylformamido)-2-fluoro-4-methyl-N-(6-(4-isopropyl-4H-1,2,4-triazol-3-yl)pyridin-2-yl)benzamide] | 54 |

Source: patent US20210139454A1, “FORMAMIDE COMPOUND, PREPARATION METHOD THEREFOR AND APPLICATION THEREOF” (SHENZHEN CHIPSCREEN BIOSCIENCES CO., LTD., priority 2018, published 2021)
